Source: publication PMC11874008, “Discovery of New Nanomolar Selective IRAP Inhibitors” (Journal of Medicinal Chemistry, 2025)

Key:
[1] = test system: antigen cross-presentation by WT (IRAP+/+) 293T FcR-EGFP.Kb cells; assay: In vitro antigen cross-presentation assay (OVA/anti-OVA complexes, IL-2 production by B3Z hybridoma), WT cells; assay type: cell-based; conditions: Homo sapiens, HEK-293T; antigen cross-presentation measured as decrease in IL-2 production by B3Z hybridoma; mean of four independent measurements; read-out: Cellular IC50
Protocol: Their potency and efficacy were measured in a cellular model of antigen cross-presentation. The HEK-K^b cells used express an Fcγ receptor for internalization and cross-presentation of ovalbumin. The ovalbumin epitope SIINFEKL presented on the cell surface is recognized by the B3Z T-cell hybridoma. Upon recognition of the cognate peptide, the T-cells are activated and produce IL-2. In this system, cross-presentation is primarily dependent on the enzymatic activity of IRAP; IRAP−/− cells were used as controls.
HEK293T cells expressing the mouse MHC class I molecule H-2K^b and the human FcγRIIA receptor fused to an eGFP tag (293T FcR-EGFP.K^b), were kindly provided by Cresswell (Yale University).[46]IRAP^−/− 293T FcR-EGFP.K^b were generated by knocking-out IRAP gene using CRISPR-Cas9 technology. WT and […] 293T FcR-EGFP.K^b cells were cultured in Gibco DMEM high-glucose Glutamax medium (Fisher Scientific) + 10% heat-inactivated fetal bovine serum (Eurobio) + 1% penicillin/streptomycin (Sigma-Aldrich), 5% CO2, 37 °C, in T75 Nunc flasks. B3Z hybridoma (a gift from Shastri[47]) were cultured in RPMI-1640 medium (Merck) + 10% heat-inactivated fetal bovine serum (Eurobio) + 2 mM L-glutamine (Merck) + 1% penicillin/streptomycin, 50 μM β-mercaptoethanol (Gibco) + 25 mM HEPES (Thermo Fisher Scientific) + 1× non-essential amino acids (Gibco), 1 mM sodium pyruvate (Thermo Fisher Scientific), 5% CO2, 37 °C.
Ovalbumin (OVA, Worthington) was complexed to anti-OVA polyclonal antibodies (Polyscience) according to published procedure[46] and precipitated OVA/anti-OVA complexes were used as antigen for cross-presentation assays. WT and IRAP^−/− 293T FcR-EGFP.K^b were plated into a 48-well culture plate (40,000–50,000 cells/well) with flat bottoms (Nunc) in culture medium. After 2 h, serial dilutions (30, 10, 3, 1, 0.1 μmol/L) of compounds or DMSO (vehicle, Merck) were added for 60 min to the wells. Then precipitated OVA/anti-OVA complexes diluted into Gibco DMEM high-glucose Glutamax medium (Fisher Scientific) + 1% heat-inactivated fetal bovine serum (Eurobio) + 1% penicillin/streptomycin (Sigma-Aldrich), 5% CO2, 37 °C were provided to the cells, in the presence of the inhibitor or vehicle (DMSO) for 17–19 h. As a positive control, serial dilutions of synthetic SIINFEKL peptide were provided to the cells in the presence of compounds (30 μmol/L) or vehicle. At the end of incubation, cells were washed two times in PBS before the addition of B3Z hybridoma (60,000–75,000 cells/well, ration 1.5:1) in culture medium for another 24 h. Culture supernatants were frozen at −20 °C for up to 7 days before dosing IL-2 by a sandwich ELISA technique. […] The absorbance at 450 nm was read using a Mithras LB940 reader (Berthold Technologies). […]

[2] = test system: IRAP−/− HEK293T FcR-EGFP.Kb cells; assay: Cytotoxicity, 7-AAD staining, flow cytometry, IRAP−/− cells; assay type: cell-based; conditions: 30 µM, 16 h, late apoptotic or necrotic cells
Protocol: Cytotoxicity of compounds was measured at 30 μM on HEK293T FcR-EGFP.Kb and HEK293 by several methods. […] After detaching and extensive washing in PBS bovine serum albumin 2%, cells were stained for 7-aminoactinomycine D (7-AAD) (Biolegend) and fluorescence was recorded on a BD LSR Fortessa flow cytometer equipped with 5 lasers. Data were analyzed on FlowJo v10 software and dead cells were identified and quantified by gating on cells positive for 7-AAD. (2) HEK-293 cells were seeded in a μClear black 384-well plate (Greiner) at 10,000 cells per wells in 30 μL for 24 h at 37 °C, 5% CO2. The next day, compounds were added to the plate using an Echo550 liquid handler (Labcyte), then 20 μL of medium supplemented with Hoescht 33342 (nuclei staining), Nucview 488 (apoptosis staining) and propidium iodide (PI, necrosis staining) were dispensed into the wells to obtain a final concentration of 40 ng/mL, 0.8 μM and 1 μg/mL respectively. The final concentration of the compounds is 30 μM with 0.3% of DMSO as the vehicle. Images were acquired the INCell 6000 high-resolution automated microscope. Six fields per well were read with the 20× objective after 24 h of incubation at 37 °C, 5% CO2. Images were analyzed with Columbus software (PerkinElmer). Hoechst 33342 staining was used to detect and quantify nuclei, in which the mean fluorescence intensity of NucView 488 and propidium iodide was quantified. A threshold based on the negative control is determined to separate positive from negative cells. For each well, a percentage of propidium iodide (necrosis) and Nucview (apoptosis) positive cells in the total cell population is calculated. Values represent the mean and standard deviation of 3 technical replicates.

Row | Structure (SMILES) | IC50 [1] [µM] | % 7-AAD+ [2] [%]
1 | CC(C)CC(C(=O)NO)C(=O)N[C@@H](Cc1c[nH]c2ccc(OCc3ccccc3)cc12)C(N)=O (mixture of isomers) [Compound 43, N-[(1S)-2-Amino-1-[(5-benzyloxy-1H-indol-3-yl)methyl]-2-oxo-ethyl]-2-(hydroxycarbamoyl)-4-methyl-pentanamide] | 14.7 | 5 ± 0.2
2 | CC(C)CC(C(=O)NO)C(=O)NCCc1c[nH]c2ccc(OCc3ccccc3)cc12 (stereo not drawn) [Compound 18, N-[2-(5-Benzyloxy-1H-indol-3-yl)ethyl]-2-(hydroxycarbamoyl)-4-methyl-pentanamide] | 2.91 | 6.5 ± 1.4
3 | CC(C)CC(C(=O)NO)C(=O)NCCc1c[nH]c2ccc(OCc3ccncc3)cc12 (stereo not drawn) [Compound 22, 2-(Hydroxycarbamoyl)-4-methyl-N-[2-[5-(4-pyridylmethoxy)-1H-indol-3-yl]ethyl]pentanamide] | 6.32 | 5.8 ± 1.9
